Experimental data published in patent US20260007133A1, “HERBICIDAL COMPOSITION COMPRISING AZINE COMPOUNDS” (BASF SE, priority 2022, published 2026).
Several values for one entry are separate records, joined by “and”; a condition that tells them apart may be missing. Equal entries are not always repeated. Where two headings read alike, the source gives them in different places.

What was measured:
Assay type in all cases: in vivo
Echinochloa crus-galli = experiment: Greenhouse post-emergence (POST) herbicidal test on ECHCG; settings: Echinochloa crus-galli, post-emergence, POST; ECHCG; use rate 2 gai/ha; read-out: % activity
Method in brief: (§1)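 Injury was rated visually on a 0–100 scale, where 0 is normal growth and 100 is complete above-ground kill, 20 days after treatment. Test plants at 3–15 cm height received a post-emergence spray of water-dispersed active from 5% emulsion concentrates. Pots held loamy sand with ~3.0% humus, at 10-25 °C or 20-35 °C depending on species.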

Galium aparine = experiment: Greenhouse pre-emergence (PRE) herbicidal test on GALAP; settings: Galium aparine, pre-emergence, PRE, GALAP
Method in brief: (§2)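 Seeds sown in loamy sand (~3.0% humus); compounds in water applied by fine nozzles directly after sowing, then pots irrigated and hooded until rooting. Plants held at 10-25° C or 20-35° C by species; damage scored 0-100 (100 = no emergence/complete destruction) 20 days after treatment.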

Geranium pusillum = experiment: Greenhouse pre-emergence (PRE) herbicidal test on GERPU; settings: Geranium pusillum, pre-emergence, GERPU PRE
Method in brief: as §2

Brachiaria decumbens = experiment: Greenhouse pre-emergence (PRE) herbicidal test on BRADC; settings: Urochloa decumbens, BRADC PRE, use rate 2 gai/ha
Method in brief: as §2

Abutilon theophrasti = experiment: Greenhouse post-emergence (POST) herbicidal test on ABUTH; settings: Abutilon theophrasti, post-emergence; for pest or weed control at 2 g/ha: I-3 solo 2 gai/ha
Method in brief: as §1

Amaranthus retroflexus = experiment: Greenhouse post-emergence (POST) herbicidal test on AMARE; settings: Amaranthus retroflexus, post-emergence
Method in brief: as §1

Digitaria sanguinalis = experiment: Greenhouse post-emergence (POST) herbicidal test on DIGSA; settings: for pest or weed control at 2 g/ha: I-3 solo 2 gai/ha
Method in brief: as §1

Euphorbia heterophylla = experiment: Greenhouse post-emergence (POST) herbicidal test on EPHHL; settings: Euphorbia heterophylla, post-emergence; for inhibition at 2 g/ha: use rate 2 gai/ha; for inhibition at 4 g/ha: use rate 4 gai/ha; for inhibition at 8 g/ha: use rate 8 gai/ha
Method in brief: as §1

Setaria viridis = experiment: Greenhouse pre-emergence (PRE) herbicidal test on SETVI; settings: Setaria viridis, pre-emergence, 480 h, 20 DAT
Method in brief: as §2

[1] = 480 h, POST, EPHHL, 20 DAT, read-out: solo application % activity

COc1c(Cl)cc(F)c(F)c1Nc1nc(N)nc(C(C)(C)F)n1 [Compound I-3]
inhibition at 2 g/ha (Echinochloa crus-galli): 30% | inhibition at 2 g/ha (Galium aparine; use rate 2 gai/ha): 15% | inhibition at 8 g/ha (Galium aparine; use rate 8 gai/ha): 75% | inhibition at 2 g/ha (Geranium pusillum; use rate 2 gai/ha): 0% | inhibition at 8 g/ha (Geranium pusillum; use rate 8 gai/ha): 15% | inhibition at 2 g/ha (Brachiaria decumbens): 30% | pest or weed control at 2 g/ha (Abutilon theophrasti; 432 h, POST, ABUTH, 18 DAT): 35% | pest or weed control at 8 g/ha (Abutilon theophrasti; 432 h, POST, ABUTH, I-3 solo 8 gai/ha, 18 DAT): 65% | pest or weed control at 8 g/ha (Abutilon theophrasti; 480 h, POST, 8 gai/ha, 20 DAT): 50% | inhibition at 2 g/ha (Abutilon theophrasti; 480 h, POST, ABUTH, 2 gai/ha, 20 DAT, read-out: % activity solo application): 10% | pest or weed control at 2 g/ha (Abutilon theophrasti; 480 h, POST, ABUTH, 20 DAT): 50% | pest or weed control at 8 g/ha (Abutilon theophrasti; 480 h, POST, ABUTH, I-3 solo 8 gai/ha, 20 DAT): 80% | inhibition at 2 g/ha (Abutilon theophrasti; 480 h, POST, ABUTH, use rate 2 gai/ha, 20 DAT, read-out: solo application % activity): 10% | inhibition at 4 g/ha (Abutilon theophrasti; 480 h, POST, ABUTH, use rate 4 gai/ha, 20 DAT): 10% | inhibition at 16 g/ha (Abutilon theophrasti; 480 h, POST, ABUTH, use rate 16 gai/ha, 20 DAT): 50% | inhibition at 2 g/ha (Abutilon theophrasti; ABUTH POST, use rate 2 gai/ha, read-out: % activity): 20% | inhibition at 8 g/ha (Abutilon theophrasti; ABUTH POST, use rate 8 gai/ha, read-out: % activity): 85% | inhibition at 2 g/ha (Abutilon theophrasti; POST, ABUTH, use rate 2 gai/ha, read-out: % activity): 30% | pest or weed control at 8 g/ha (Amaranthus retroflexus; 432 h, POST, AMARE, I-3 solo 8 gai/ha, 18 DAT): 90% | inhibition at 2 g/ha (Amaranthus retroflexus; 480 h, POST, AMARE, 2 gai/ha, 20 DAT, read-out: % activity solo application): 45% | inhibition at 4 g/ha (Amaranthus retroflexus; 480 h, POST, AMARE, use rate 4 gai/ha, 20 DAT): 50% | inhibition at 2 g/ha (Amaranthus retroflexus; AMARE POST, use rate 2 gai/ha, read-out: % activity): 60% | inhibition at 8 g/ha (Amaranthus retroflexus; AMARE POST, use rate 8 gai/ha, read-out: % activity): 75% | inhibition at 2 g/ha (Amaranthus retroflexus; POST, AMARE, use rate 2 gai/ha, read-out: % activity): 70% | % activity (Digitaria sanguinalis; DIGSA POST, use rate 2 gai/ha): 0% | % activity (Digitaria sanguinalis; DIGSA POST, use rate 8 gai/ha): 75% and 50% | inhibition at 2 g/ha (Digitaria sanguinalis; Digitaria sanguinalis, post-emergence, 432 h, POST, DIGSA, 2 gai/ha, 18 DAT, read-out: % activity solo application): 10% | inhibition at 8 g/ha (Digitaria sanguinalis; Digitaria sanguinalis, post-emergence, 432 h, POST, DIGSA, 8 gai/ha, 18 DAT, read-out: % activity solo application): 10% | pest or weed control at 2 g/ha (Digitaria sanguinalis; Digitaria sanguinalis, post-emergence, 432 h, POST, DIGSA, 18 DAT): 10% | pest or weed control at 8 g/ha (Digitaria sanguinalis; Digitaria sanguinalis, post-emergence, 432 h, POST, DIGSA, I-3 solo 8 gai/ha, 18 DAT): 10% | inhibition at 8 g/ha (Digitaria sanguinalis; Digitaria sanguinalis, post-emergence, 480 h, DIGSA POST, 20 DAT, use rate 8 gai/ha, read-out: % activity): 40% | pest or weed control at 8 g/ha (Digitaria sanguinalis; Digitaria sanguinalis, post-emergence, 480 h, POST, 8 gai/ha, 20 DAT): 40% | inhibition at 8 g/ha (Digitaria sanguinalis; Digitaria sanguinalis, post-emergence, 480 h, POST, DIGSA, 8 gai/ha, 20 DAT, read-out: % activity solo application): 85% | pest or weed control at 2 g/ha (Digitaria sanguinalis; Digitaria sanguinalis, post-emergence, 480 h, POST, DIGSA, 20 DAT): 5% | inhibition at 8 g/ha (Digitaria sanguinalis; Digitaria sanguinalis, post-emergence, 480 h, POST, DIGSA, use rate 8 gai/ha, 20 DAT, read-out: solo application % activity): 10% | solo application % activity (Digitaria sanguinalis; POST, DIGSA, use rate 2 gai/ha, 20 DAT): 0% | inhibition at 2 g/ha (Euphorbia heterophylla; 480 h, EPHHL POST, 20 DAT, read-out: % activity): 25% | pest or weed control at 8 g/ha (Euphorbia heterophylla; 480 h, POST, 8 gai/ha, 20 DAT): 60% | inhibition at 2 g/ha (Euphorbia heterophylla; [1]): 20% | inhibition at 4 g/ha (Euphorbia heterophylla; 480 h, POST, EPHHL, 20 DAT): 65% | inhibition at 8 g/ha (Euphorbia heterophylla; [1]): 50% | inhibition at 8 g/ha (Euphorbia heterophylla; EPHHL POST, read-out: % activity): 60% | inhibition at 4 g/ha (Euphorbia heterophylla; POST, EPHHL): 60% | pest or weed control at 2 g/ha (Setaria viridis; PRE, 2 gai/ha): 60% | inhibition at 2 g/ha (Setaria viridis; PRE, SETVI, 2 gai/ha, read-out: % activity solo application): 50% | inhibition at 2 g/ha (Setaria viridis; PRE, SETVI, use rate 2 gai/ha, read-out: solo application % activity): 20% | inhibition at 2 g/ha (Setaria viridis; SETVI PRE, use rate 2 gai/ha, read-out: % activity): 60%
